For 80 compounds, RP-LC retention time results are on record in the METLIN SMRT retention time set (Domingo-Almenara et al. 2019).

The nature of this data set: gradient 5% acetonitrile 3 min, to 50% in 2 min, to 85% in 15 min, held 3 min, 100 µL/min. As to conditions: column: Zorbax Extend-C18 2.1 x 50 mm; eluents: water / acetonitrile, 0.1% formic acid. The method, boiled down: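 The system's dead and dwell volumes were 40 μL and 900 μL, with a Zorbax Extend-C18 column (2.1 × 50 mm, 1.8 μm) run at 100 μL/min in water and acetonitrile containing 0.1% formic acid each. Pure standards were analyzed in mixtures of ~100 molecules by HPLC–quadrupole time-of-flight mass spectrometry in positive and negative ionization mode. Retention time was assigned from computationally picked, manually inspected adduct peaks.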
`Cc1cc2nc(C(F)(F)F)c(=O)n(C(C)C(=O)NCCCOC(C)C)c2cc1C` (stereo not given): the RP-LC retention time stood at 1140 s.

`O=C(Nc1cccc(-c2ccc(N3CCOCC3)nn2)c1)Nc1cccc(C(F)(F)F)c1` returned an RP-LC retention time of 782 s.

Compound `CNC(=O)c1csc2c1CCCCC2` yielded an RP-LC retention time of 787 s.

For the compound `Cn1cc(CCN2CCC(C(=O)NCc3ccccc3Cl)CC2)c2cccnc21`, the RP-LC retention time was found to be 617 s.

For `Cc1c(C(=O)C(=O)N2CCc3ccccc3C2)c2ccccc2n1C`, the RP-LC retention time is 913 s.

In turn, `CC(C)Oc1ccc(C(=O)O)cc1` gave an RP-LC retention time of 823 s.

For `Cc1cc(C)n2c(Nc3ccccc3C)c(-c3ccccc3)nc2n1`, the RP-LC retention time was determined as 728 s.

For the compound `Cc1csc(-c2cn(CC(=O)Nc3ccc(C)c(C)c3)cn2)n1`, the RP-LC retention time was determined as 722 s.

Regarding `O=P(O)(O)c1cc(-c2ccccc2)oc1-c1ccccc1`, the RP-LC retention time came to 852 s.

The compound `O=c1c2nc(-c3ccc4c(c3)OCO4)cn2ccn1-c1ccc(F)cc1` displayed an RP-LC retention time of 772 s.

`Cc1cc(C(=O)N2CCCC2c2nncn2C(C)C)n[nH]1` (stereo not given) gave an RP-LC retention time of 579 s.

As for `O=C1Nc2ccccc2NC12CCOCC2`, the RP-LC retention time amounted to 631 s.

`O=C(C1CC1)N1[C@H]2CC[C@@H]1c1cnc(-c3ccc(F)cc3)nc1C2` returned an RP-LC retention time of 870 s.

Turning to `Cn1nc(-c2nnc(-c3ccccc3F)o2)c2c1CCN(S(=O)(=O)c1ccc(Cl)cc1)C2`, the RP-LC retention time came out at 979 s.

`COC(=O)C(NC(=O)Nc1ccc(-c2nc(-c3ccccc3)co2)cc1)c1ccccc1` (stereo not given) displayed an RP-LC retention time of 1090 s.

Take `Cc1c(C(=O)NCC(C)C)cnn1-c1ccc(-c2nc(C(C)(C)C)no2)cn1`: the RP-LC retention time worked out at 1110 s.

`COc1ccc(CNC(=O)c2cn3cccc(C)c3n2)cc1` displayed an RP-LC retention time of 695 s.

As to `COc1ccc(CNC(=O)c2cc(NC(C)=O)cc3nc(C)ccc23)cc1OC`, the RP-LC retention time is 575 s.

As for `Cc1ccc(-n2nc(C)c(S(=O)(=O)N3CCC(C(=O)NCC4CCCO4)CC3)c2C)cc1` (stereo not given), the RP-LC retention time amounted to 807 s.

Regarding `CCc1ccc(N2CC(c3nc4ccccc4n3CC(=O)N3CCCC3)CC2=O)cc1` (stereo not given), the RP-LC retention time was 739 s.

In the case of `Cc1ccn2c(NC(=O)c3cccs3)c(-c3ccccc3)nc2c1`, the RP-LC retention time is 633 s.

For `COc1ccccc1-c1csc(-c2nnn(-c3ccc(Cl)cc3)c2N)n1`, the RP-LC retention time was 1190 s.

For the compound `CCc1ccc(-c2noc(CSc3nc4cc5c(cc4c(=O)n3CCOC)OCO5)n2)cc1`, the RP-LC retention time was determined as 1190 s.

`Cc1ccn2c(NC(=O)c3ccc4ccccc4c3)c(-c3ccc(F)cc3)nc2c1` yielded an RP-LC retention time of 765 s.

For `N#Cc1ccc(NC(=O)C2Oc3ccccc3NC2=O)cc1` (stereo not given), the RP-LC retention time stood at 727 s.

`Cc1cc(C)n(-c2ccnc(N3CCN(C(C)C)CC3)n2)n1` yielded an RP-LC retention time of 610 s.

`Cc1nnc2c(=O)n(CC(=O)NCc3ccc(Cl)cc3)c3cccnc3n12` had an RP-LC retention time of 703 s.

In the case of `CCN1C(=O)COc2ccc(-c3noc(-c4cccc(OC)c4OC)n3)cc21`, the RP-LC retention time amounted to 1060 s.

`Cn1nc(-c2nnc(-c3ccccc3)o2)c2c1CCN(S(=O)(=O)c1ccc(Cl)s1)C2` gave an RP-LC retention time of 1010 s.

In the case of `CCc1cc(Br)ccc1NC(=O)C1CCCN(c2nc3ccccc3nc2OC)C1` (stereo not given), the RP-LC retention time worked out at 1300 s.

The compound `O=C(CC1CCN(C(=O)c2ccc3oc(-c4ccccc4)nc3c2)CC1)NC1CC1` came in with an RP-LC retention time of 728 s.

`COCC(=O)NC1CCN(c2ccc(C)c(C)c2)C1=O` (stereo not given) came in with an RP-LC retention time of 705 s.

In turn, `COc1ccc(-c2cn3c(CCC(=O)NCc4ccco4)csc3n2)cc1` registered an RP-LC retention time of 637 s.

`CCOC(=O)c1c(C)[nH]c(C(=O)N2CCC(CC(=O)NC3CC3)CC2)c1C` registered an RP-LC retention time of 654 s.

`COc1cc(C2OC(c3ccc(F)cc3)=NN2C(C)=O)cc(OC)c1OC` (stereo not given) registered an RP-LC retention time of 902 s.

Consider `O=C(Cn1cccc(S(=O)(=O)N2CCOCC2)c1=O)N1CCc2ccccc21`, for which the RP-LC retention time is 667 s.

`O=C(c1n[nH]c2ccccc12)N1CCCn2nc(-c3cccs3)cc2C1` came in with an RP-LC retention time of 791 s.

As for `CC(C)N1CCn2cc(S(=O)(=O)NCc3ccccc3Cl)cc2C1=O`, the RP-LC retention time amounted to 769 s.

`Cc1ccc(-n2c(=O)c3sccc3n(Cc3nc(-c4ccc(Cl)c(F)c4)no3)c2=O)cc1` displayed an RP-LC retention time of 1150 s.

In turn, `COCc1cnc2c(c1SCc1ccccc1F)c(=O)n(C)c(=O)n2C` yielded an RP-LC retention time of 899 s.

Compound `O=C(CC1CCCCC1)N1CCC(F)(C(=O)N2CCCC2)CC1` yielded an RP-LC retention time of 806 s.

With `CCn1cc(CCN2CCN(S(=O)(=O)c3ccc4c(c3)CCC4)CC2)c2cccnc21`, the RP-LC retention time stood at 702 s.

Take `Cc1ccc(N2CC(c3noc(-c4ccc(C)nc4)n3)CC2=O)cc1` (stereo not given): the RP-LC retention time was determined as 799 s.

`Cc1ccc(-c2nc(Cn3ccnc3C)no2)cc1` registered an RP-LC retention time of 634 s.

As for `CCC(=O)Nc1ccc(S(=O)(=O)NCCOc2ccc3c(c2)OCO3)cc1`, the RP-LC retention time came out at 830 s.

In turn, `O=C(Nc1ccc(F)c(Cl)c1)N1CCCC1c1nc(-c2ccc(F)cc2F)no1` (stereo not given) came in with an RP-LC retention time of 1070 s.

`COCCNC(=O)C1CCCN1S(=O)(=O)c1cc2c(cc1Cl)NC(=O)CO2` (stereo not given) displayed an RP-LC retention time of 627 s.

In the case of `CCOC(=O)c1cc(S(=O)(=O)N2CCCC2C(=O)N2CCc3ccccc32)cn1C` (stereo not given), the RP-LC retention time turned out to be 696 s.

`CCOc1ccccc1NC(=O)NCc1nc(-c2ccccc2)oc1C` returned an RP-LC retention time of 963 s.

The compound `Cc1ccc(-c2ccc3nnc(CCC(=O)NCc4ccccc4C(F)(F)F)n3n2)cc1` came in with an RP-LC retention time of 794 s.

Consider `Cc1cc(C)cc(NC(=O)C2CCN(S(=O)(=O)c3ccc(-c4noc(C5CC5)n4)cc3)CC2)c1`, for which the RP-LC retention time amounted to 838 s.

In turn, `Cc1nn(C(C)C(=O)NCCCN(C)Cc2ccccc2)c(=O)c2c(C)n(-c3ccccc3)nc12` (stereo not given) gave an RP-LC retention time of 687 s.

`Cc1ccc2c(Nc3ccc(F)c(Cl)c3)c(C(=O)N3CCOCC3)cnc2n1` had an RP-LC retention time of 601 s.

Compound `O=C(COc1ccc(F)cc1)N1CCN(CC(F)(F)F)CC1` yielded an RP-LC retention time of 771 s.

`Cc1ccc2nc(-c3ccc(NC(=O)Cn4cnc(C)cc4=O)cc3)sc2c1` displayed an RP-LC retention time of 762 s.

Turning to `Cc1cc(C)n(-c2ccnc(N3CCc4ccccc4C3)n2)n1`, the RP-LC retention time was determined as 1150 s.

As for `CCc1nc(-c2ccc3c(c2)CCN3C(=O)Cc2ccc(OC)c(OC)c2)no1`, the RP-LC retention time is 923 s.

As to `COc1ccc(OCc2nc(-c3ccc(NS(=O)(=O)c4cccs4)cc3)no2)cc1`, the RP-LC retention time was determined as 1040 s.

In turn, `Cc1cccc(OCC(=O)Nc2ccc3c(c2)Sc2ncccc2C(=O)N3C)c1` gave an RP-LC retention time of 856 s.

For the compound `CC(C)C(=O)N1CCCC1c1nc(CCOCC2CC2)no1` (stereo not given), the RP-LC retention time came to 733 s.

Turning to `Cc1ccc(-c2cn3cc(C(=O)NC(C)c4cccnc4)ccc3n2)cc1` (stereo not given), the RP-LC retention time stood at 571 s.

With `Cc1cc(N2CCN(C)CC2)nc(N2CCN(C(=O)c3ccc(-c4ccccc4)cc3)CC2)n1`, the RP-LC retention time was found to be 585 s.

`Cc1ccccc1CNC(=O)c1c(C)oc2c1C1=NCCN1C=N2`: the RP-LC retention time is 621 s.

Regarding `CCc1ccccc1S(=O)(=O)NCC(c1cccnc1)c1cn(C)c2ccccc12` (stereo not given), the RP-LC retention time was determined as 787 s.

For `CCc1ccc2[nH]c3c(c(=O)c2c1)CN(CC(=O)NC1CCCCC1)CC3`, the RP-LC retention time was found to be 630 s.

In turn, `CCCn1c(=O)c(C)nc2cc(-c3noc(CNS(=O)(=O)c4ccccc4)n3)ccc21` had an RP-LC retention time of 853 s.

`Cc1ccnc(OCC(=O)Nc2cc(C)on2)n1` returned an RP-LC retention time of 612 s.

In the case of `Cc1ccc(CNC(=O)C2CCCN(c3nnc4ccccn34)C2)o1` (stereo not given), the RP-LC retention time stood at 649 s.

For the compound `CC(=O)N(C)c1ccc(NS(=O)(=O)c2ccc(C)cc2)c([N+](=O)[O-])c1`, the RP-LC retention time was found to be 742 s.

In turn, `COc1ccc(C(=O)Nc2nc3c(s2)Cc2c(Br)ccc(OC)c2-3)cc1OC` returned an RP-LC retention time of 1100 s.

Consider `CCN1C(=O)c2cc(C(=O)N3CCN(c4ccccc4F)CC3)nn2CC1(C)C(=O)NC1CCCC1` (stereo not given), for which the RP-LC retention time was 840 s.

Take `CCCNS(=O)(=O)c1cc(-c2nnc(-c3ccccc3)o2)ccc1F`: the RP-LC retention time was 939 s.

The compound `Cc1cccc(-c2ncccc2CNS(=O)(=O)c2cc(F)cc(F)c2)c1` returned an RP-LC retention time of 776 s.

In turn, `COc1ccc(CNC(=O)C2CCN(c3cnc4nccnc4c3)CC2)cc1OC` registered an RP-LC retention time of 633 s.

Turning to `CCCNC(=O)C1CCCN(c2ccc(SCC(=O)Nc3ccc(OCC)cc3)nn2)C1` (stereo not given), the RP-LC retention time worked out at 595 s.

Compound `COc1nccnc1N1CCC(NC(=O)Cc2cccnc2)C1` (stereo not given) registered an RP-LC retention time of 556 s.

The compound `CN(CCCNC(=O)C1CCN(c2nnc3ccc(Cl)cn23)CC1)c1ccccc1` registered an RP-LC retention time of 606 s.

Compound `CC(C)Cc1cc(-c2nn3c(Cc4ccccc4)nnc3s2)n[nH]1` yielded an RP-LC retention time of 910 s.

For the compound `CCOc1ccc(NC(=O)Cn2nc3c4sc(N(C)C)nc4ncn3c2=O)cc1`, the RP-LC retention time was 692 s.

With `NC(=O)Nc1ccc(Nc2ccccc2)cc1`, the RP-LC retention time was found to be 752 s.
